As a reminder, the GI50 is the concentration that inhibits growth by half.

This is an account of results in patent US10065990B2, “Cyclic peptide compound, and preparation method, pharmaceutical composition and use thereof” (HANGZHOU GUANYU BIO-MEDICAL CO., LTD, priority 2013, dated 2018).

Where two headings read alike, the source gives them in different places.

The subject of experiment [1] is KBM-5 (human chronic myelogenous leukemia). Nature of the experiment: MTT cancer cell growth inhibition. Particulars: Homo sapiens, KBM5, 72 h, MTT, 72 hours incubation, KBM-5 cells; read-out: GI50 KBM-5. It counts as cell-based. In outline:
(§1)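 Growth inhibition is scored with MTT after three days of compound treatment spanning 10^−5–10^−10 M. Cells are maintained in DMEM or 1640 medium containing 10% FBS and plated at 1500 per well the previous night; absorbance at 570 nm gives viability, from which GI50 is calculated.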

Experiment [2] concerns MCF-7 (human breast cancer cells). In words: MTT cancer cell growth inhibition. It counts as cell-based. The settings on record: Homo sapiens, MCF7, 72 h, 72 hours incubation, read-out: GI50 MCF. In outline:
as §1

Experiment [3] deals with K562 (human leukemia cells). In words: MTT cancer cell growth inhibition. The settings on record: Homo sapiens, K562, 72 h, MTT, 72 hours incubation, K562 cells; read-out: GI50 K562. The format is cell-based. A digest of the protocol: as §1
The subject of experiment [4] is MOLT-4 (human acute lymphoblastic leukemia cells). In words: MTT cancer cell growth inhibition. It counts as cell-based. The settings on record: Homo sapiens, MOLT-4, 72 h, MTT, 72 hours incubation, read-out: GI50 Mol. In outline:
as §1

Experiment [5] deals with DU145 (human prostate cancer cells). Nature of the experiment: MTT cancer cell growth inhibition. The settings on record: Homo sapiens, DU-145, 72 h, MTT, 72 hours incubation, read-out: GI50 Du1. It counts as cell-based. A digest of the protocol: as §1
In experiment [6] the test system is KBM5-T315I (human chronic myelogenous leukemia). Nature of the experiment: MTT cancer cell growth inhibition. The format is cell-based. The settings on record: Homo sapiens, 72 h, MTT, 72 hours incubation, KBM5-T315I cells; read-out: GI50 KBM5-T315I. A digest of the protocol:
as §1

In experiment [7] the test system is PANC-1 (Pac-1, human pancreatic cancer cells). Nature of the experiment: MTT cancer cell growth inhibition. It counts as cell-based. The settings on record: Homo sapiens, PANC-1, 72 h, MTT, 72 hours incubation, read-out: GI50 PAN. In outline:
as §1

Experiment [8] concerns A549 (human lung cancer cells). Nature of the experiment: MTT cancer cell growth inhibition. It counts as cell-based. Particulars: Homo sapiens, A549, 72 h, MTT, 72 hours incubation, read-out: GI50 A54. A digest of the protocol:
as §1

Experiment [9] has as its system lncap (prostate cancer cells). In words: MTT cancer cell growth inhibition. The format is cell-based. Particulars: Homo sapiens, LNCaP, 72 h, MTT, 72 hours incubation, read-out: GI50 lnca. A digest of the protocol: as §1
Experiment [10] has as its system Bel-7402 (human hepatoma cells). In words: MTT cancer cell growth inhibition. Particulars: Homo sapiens, Bel-7402, 72 h, MTT, 72 hours incubation, Bel-7402 cells; read-out: GI50 Bel-7402. The format is cell-based. In outline:
as §1

Experiment [11] relates to SGC-7901 (human gastric cancer cells). In words: MTT cancer cell growth inhibition. It counts as cell-based. The settings on record: Homo sapiens, SGC-7901, 72 h, MTT, 72 hours incubation, SGC-7901 cells; read-out: GI50 SGC-7901. A digest of the protocol:
as §1

The subject of experiment [12] is MDA-MB-231 (breast cancer cells). Nature of the experiment: MTT cancer cell growth inhibition. It counts as cell-based. The settings on record: Homo sapiens, MDA-MB-231, 72 h, read-out: GI50 MDA-MB-231, MTT, 72 hours incubation, MDA-MB-231 cells. In outline:
as §1

In experiment [13] the test system is N-87 (human gastric cancer cells). In words: MTT cancer cell growth inhibition. It counts as cell-based. Particulars: Homo sapiens, 72 h, MTT, 72 hours incubation, N-87 cells; read-out: GI50 N-87. A digest of the protocol:
as §1

For experiment [14], the system named is U937 (human leukemia cells). Nature of the experiment: MTT cancer cell growth inhibition. It counts as cell-based. The settings on record: Homo sapiens, U-937, 72 h, MTT, 72 hours incubation, read-out: GI50 U93. A digest of the protocol:
as §1

For experiment [15], the system named is HT1080 (human fibrosarcoma cells). Nature of the experiment: MTT cancer cell growth inhibition. The format is cell-based. Particulars: Homo sapiens, HT-1080, 72 h, MTT, 72 hours incubation, read-out: GI50 HT1. A digest of the protocol:
as §1

Experiment [16] deals with H1975 (non-small cell lung adenocarcinoma). Nature of the experiment: MTT cancer cell growth inhibition. Particulars: Homo sapiens, NCI-H1975, 72 h, MTT, 72 hours incubation, H1975 cells; read-out: GI50 H1975. The format is cell-based. In outline: as §1
The subject of experiment [17] is Huh-7 (human hepatoma cells). Nature of the experiment: MTT cancer cell growth inhibition. It counts as cell-based. Particulars: Homo sapiens, Huh-7, 72 h, MTT, 72 hours incubation, Huh-7 cells; read-out: GI50 Huh-7. A digest of the protocol:
as §1

The subject of experiment [18] is HCC827 (human non-small cell lung cancer cells). In words: MTT cancer cell growth inhibition. The format is cell-based. Particulars: Homo sapiens, HCC827, 72 h, MTT, 72 hours incubation, HCC827 cells; read-out: GI50 HCC827. A digest of the protocol: as §1
The test system of experiment [19] is BGC-823 (human gastric cancer cells). Nature of the experiment: MTT cancer cell growth inhibition. It counts as cell-based. Particulars: Homo sapiens, BGC-823, 72 h, MTT, 72 hours incubation, read-out: GI50 BG. A digest of the protocol: as §1
The test system of experiment [20] is Hela (human cervical cancer cells). In words: MTT cancer cell growth inhibition. The format is cell-based. Particulars: Homo sapiens, HeLa, 72 h, MTT, 72 hours incubation, read-out: GI50 Hela. In outline:
as §1

In a further experiment the target is T1, HDAC7 (Homo sapiens, UniProt Q8WUI4).
T1 sequence (Q8WUI4 1-952): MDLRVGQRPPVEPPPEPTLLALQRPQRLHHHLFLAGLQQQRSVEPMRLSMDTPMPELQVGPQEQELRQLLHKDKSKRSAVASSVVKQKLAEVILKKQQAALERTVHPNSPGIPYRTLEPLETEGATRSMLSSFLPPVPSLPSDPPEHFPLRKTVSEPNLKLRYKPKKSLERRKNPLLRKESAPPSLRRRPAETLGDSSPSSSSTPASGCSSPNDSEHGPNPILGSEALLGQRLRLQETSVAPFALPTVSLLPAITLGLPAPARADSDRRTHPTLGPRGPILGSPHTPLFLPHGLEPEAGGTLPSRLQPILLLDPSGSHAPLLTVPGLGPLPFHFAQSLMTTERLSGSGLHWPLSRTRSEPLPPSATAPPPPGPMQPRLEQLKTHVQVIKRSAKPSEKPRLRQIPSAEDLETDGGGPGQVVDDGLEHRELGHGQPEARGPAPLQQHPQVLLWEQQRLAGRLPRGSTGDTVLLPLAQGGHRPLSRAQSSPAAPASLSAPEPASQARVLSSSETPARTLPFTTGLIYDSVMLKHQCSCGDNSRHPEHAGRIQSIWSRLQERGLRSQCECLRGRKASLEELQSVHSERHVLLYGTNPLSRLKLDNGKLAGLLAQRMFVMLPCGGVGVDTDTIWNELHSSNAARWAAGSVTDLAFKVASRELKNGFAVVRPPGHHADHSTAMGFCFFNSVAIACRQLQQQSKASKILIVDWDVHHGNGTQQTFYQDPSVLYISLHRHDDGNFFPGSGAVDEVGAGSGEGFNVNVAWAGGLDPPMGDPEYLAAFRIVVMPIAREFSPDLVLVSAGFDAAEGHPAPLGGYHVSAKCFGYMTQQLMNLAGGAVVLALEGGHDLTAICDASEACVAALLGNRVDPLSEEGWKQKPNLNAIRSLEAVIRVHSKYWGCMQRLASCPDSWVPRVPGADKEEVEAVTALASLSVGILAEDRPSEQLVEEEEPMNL
In words: HDAC biochemical activity measurement (fluorescent substrate deacetylation).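 Further: fluorogenic deacetylation assay using acetyl-lysine substrate at 20 µM, enzyme and compound incubated 30 min at 37 °C, then developer added, fluorescence read at 360/460 nm.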 Particulars: HDAC7; 37° C. 30 minutes.

On to `C/C=C1\NC(=O)c2nc(ccc2SC)CNC(=O)C[C@@H](/C=C/CCSC(=O)CCCCCCC)OC(=O)[C@H](Cc2ccccc2)NC1=O` [Compound 189], for which the concentration for 50% growth inhibition (GI50) was 45 nM in [1]; 30 nM in experiment [2] (MCF-7 cells); 32 nM in experiment [3]; 50 nM in experiment [4] (MOLT-4 cells); 30 nM in experiment [5] (DU145 cells); 43 nM in experiment [6]. For the same molecule, the 50% growth inhibitory concentration (GI50) turned out to be 80 nM in [7] (PANC-1 cells); 30 nM in experiment [8] (A549 cells); 50 nM in experiment [9] (lncap cells); 36 nM in [10]; 23 nM in experiment [11]; 38 nM in [12]. Also, the 50% growth inhibitory concentration (GI50) worked out at 45 nM in [13]; 40 nM in experiment [14] (U937 cells); 110 nM in [15] (HT1080 cells); 41 nM in [16]; 21 nM in experiment [17]; 41 nM in [18]. For the same molecule, the concentration for 50% growth inhibition (GI50) is 10 nM in experiment [19] (BGC-823 cells) and 40 nM in [20] (Hela cells). On HDAC7, the “IC50 HDAC7” value is recorded as “no activity”.

Turning to `C/C=C1\NC(=O)c2cc(SC)cc(n2)CNC(=O)C[C@@H](/C=C/CCSC(=O)CC)OC(=O)[C@H](C(C)C)NC1=O` [Compound 163], the GI50 came to 75 nM in [1]; 20 nM in experiment [2] (MCF-7 cells); 58 nM in [3]; 40 nM in experiment [4] (MOLT-4 cells); 40 nM in experiment [5] (DU145 cells); 23 nM in [6]. Besides, the 50% growth inhibitory concentration (GI50) in [7] (PANC-1 cells) amounted to 70 nM; in experiment [8] (A549 cells), 50 nM; in experiment [9] (lncap cells) it was 30 nM; in experiment [10], 26 nM; in experiment [11] it was 49 nM; in [12], 58 nM. Moreover, the concentration for 50% growth inhibition (GI50) in [13] was 39 nM; in experiment [14] (U937 cells) it was 30 nM; in [15] (HT1080 cells), 10 nM; in [16] it was 45 nM; in experiment [17] it was 107 nM; in experiment [18] it was 47 nM. The concentration for 50% growth inhibition (GI50) in experiment [19] (BGC-823 cells) was 60 nM; in [20] (Hela cells), 10 nM. For the same molecule, on HDAC7, the “IC50 HDAC7” value is given as “no activity”.

Regarding `C/C=C1\NC(=O)c2ccc(F)c(n2)CNC(=O)C[C@@H](/C=C/CCSC(C)=O)OC(=O)[C@H](Cc2ccc(O)cc2)NC1=O` [Compound 83], the GI50 in [1] worked out at 38 nM; in experiment [2], 20 nM; in experiment [3], 43 nM; in [4] it was 30 nM; in experiment [5], 40 nM; in experiment [6], 29 nM. The GI50 in [7] was 90 nM; in experiment [8], 50 nM; in [9] it was 30 nM; in experiment [10], 93 nM; in experiment [11] it was 53 nM; in experiment [12] it was 37 nM. The GI50 in experiment [13] worked out at 16 nM; in experiment [14] it was 50 nM; in experiment [15], 90 nM; in [16] it was 53 nM; in experiment [17], 37 nM; in experiment [18] it was 93 nM. Besides, the concentration for 50% growth inhibition (GI50) in [19] came out at 10 nM; in [20], 30 nM. Moreover, on HDAC7, the “IC50 HDAC7” value was “no activity”.

On to `C=C1NC(=O)c2nc(ccc2SC)CNC(=O)C[C@@H](/C=C/CCSC(C)=O)OC(=O)[C@H](C)NC1=O` [Compound 210], for which the 50% growth inhibitory concentration (GI50) in [1] was determined as 52 nM; in experiment [2] (MCF-7 cells), 30 nM; in experiment [3], 86 nM; in experiment [4] (MOLT-4 cells), 50 nM; in experiment [5] (DU145 cells), 30 nM; in experiment [6], 49 nM. Moreover, the GI50 in experiment [7] (PANC-1 cells) worked out at 50 nM; in experiment [8] (A549 cells), 50 nM; in experiment [9] (lncap cells), 50 nM; in experiment [10], 47 nM; in experiment [11], 105 nM; in [12], 72 nM. Also, the GI50 amounted to 27 nM in [13]; 20 nM in experiment [14] (U937 cells); 20 nM in experiment [15] (HT1080 cells); 25 nM in [16]; 22 nM in experiment [17]; 56 nM in experiment [18]. Moreover, the values for the GI50 in experiment [19] (BGC-823 cells) and in experiment [20] (Hela cells) were 10 nM and 30 nM, respectively. Also, at HDAC7, the “IC50 HDAC7” value is reported as “no activity”.
